Laboratory results published in ChEMBL document CHEMBL4507303, “Data for DCP probe TP-004” (2021).

Biological target: Endothelin-1 receptor (Homo sapiens, UniProt P25101)
Experiment: Inhibition of [125I]-endothelin-1 binding to EDNRA; call rule not given here

Sequence of Endothelin-1 receptor (P25101 whole entry): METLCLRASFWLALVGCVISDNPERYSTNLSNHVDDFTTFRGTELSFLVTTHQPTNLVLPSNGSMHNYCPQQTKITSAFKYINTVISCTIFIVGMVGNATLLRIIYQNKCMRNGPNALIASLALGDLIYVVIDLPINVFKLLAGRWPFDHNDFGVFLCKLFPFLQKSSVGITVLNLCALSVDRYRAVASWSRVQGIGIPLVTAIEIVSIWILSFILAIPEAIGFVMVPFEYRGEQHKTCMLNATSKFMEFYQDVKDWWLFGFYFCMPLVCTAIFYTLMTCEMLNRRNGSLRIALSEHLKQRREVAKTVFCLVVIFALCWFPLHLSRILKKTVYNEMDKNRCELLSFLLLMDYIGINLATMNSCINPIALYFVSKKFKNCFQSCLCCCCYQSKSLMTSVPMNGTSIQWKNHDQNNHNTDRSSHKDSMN

In the case of `FC(F)(F)c1cc(-c2ccccc2)c2nncn2c1` [TPn-004], the IC50 is reported as > 10 µM (not active).
